ChEMBL document CHEMBL1201862, “PubChem BioAssay data set” (2004)
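Briefly, cells in 96-well plates were exposed to five compound concentrations for 48 h, and endpoints were estimated by linear interpolation. Here, GI50 denotes the concentration required for 50% inhibition of growth.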 Activity calls are given as the source filed them. No stated cut-off is given here; in the data, active = GI50 up to about 1.1 µM and inactive = higher.

Key:
Test in all cases: DTP human tumour cell line panel, 48 h
MDA-MB-435 = tested on: MDA-MB-435
K562 = tested on: K562
NCI/ADR-RES = tested on: NCI/ADR-RES
SK-MEL-5 = tested on: SK-MEL-5
NCI-H460 = tested on: NCI-H460
HOP-62 = tested on: HOP-62
M14 = tested on: M14
SW-620 = tested on: SW-620
SN12C = tested on: SN12C
CCRF-CEM = tested on: CCRF-CEM
786-0 = tested on: 786-0
TK-10 = tested on: TK-10
OVCAR-4 = tested on: OVCAR-4
UACC-257 = tested on: UACC-257
NCI-H522 = tested on: NCI-H522
A549 = tested on: A549
MCF7 = tested on: MCF7
IGROV-1 = tested on: IGROV-1
Hs-578T = tested on: Hs-578T
SK-OV-3 = tested on: SK-OV-3
SF-268 = tested on: SF-268
PC-3 = tested on: PC-3
SK-MEL-28 = tested on: SK-MEL-28
MDA-MB-231 = tested on: MDA-MB-231
MOLT-4 = tested on: MOLT-4
SR = tested on: SR
HT-29 = tested on: HT-29
SNB-75 = tested on: SNB-75
SNB-19 = tested on: SNB-19
OVCAR-5 = tested on: OVCAR-5
T47D = tested on: T47D
KM12 = tested on: KM12
U-251 = tested on: U-251
ACHN = tested on: ACHN
EKVX = tested on: EKVX
RPMI-8226 = tested on: RPMI-8226
SF-295 = tested on: SF-295
SF-539 = tested on: SF-539
UO-31 = tested on: UO-31
HCT-15 = tested on: HCT-15
HL-60 = tested on: HL-60
HCT-116 = tested on: HCT-116
COLO 205 = tested on: COLO 205
MDA-N = tested on: MDA-N
HCC 2998 = tested on: HCC 2998
OVCAR-8 = tested on: OVCAR-8
UACC-62 = tested on: UACC-62
RXF 393 = tested on: RXF 393
OVCAR-3 = tested on: OVCAR-3
Malme-3M = tested on: Malme-3M
CAKI-1 = tested on: CAKI-1
DU-145 = tested on: DU-145
NCI-H23 = tested on: NCI-H23
SK-MEL-2 = tested on: SK-MEL-2
A498 = tested on: A498
NCI-H226 = tested on: NCI-H226
LOX IMVI = tested on: LOX IMVI

## C[n+]1c(-c2ccc(/C=N/Nc3n[nH]c(=S)n3N/N=C/c3ccc(-c4cn5ccccc5[n+]4C)cc3)cc2)cn2ccccc21
MDA-MB-435
  GI50: > 100 µM (inactive)
K562
  GI50: > 100 µM (inactive)
NCI/ADR-RES
  GI50: > 100 µM (inactive)
SK-MEL-5
  GI50: > 100 µM (inactive)
NCI-H460
  GI50: > 100 µM (inactive)
HOP-62
  GI50: > 100 µM (inactive)
M14
  GI50: > 100 µM (inactive)
SW-620
  GI50: > 100 µM (inactive)
SN12C
  GI50: > 100 µM (inactive)
CCRF-CEM
  GI50: > 100 µM (inactive)
786-0
  GI50: > 100 µM (inactive)
TK-10
  GI50: > 100 µM (inactive)
OVCAR-4
  GI50: > 100 µM (inactive)
UACC-257
  GI50: > 100 µM (inactive)
NCI-H522
  GI50: > 100 µM (inactive)
A549
  GI50: > 100 µM (inactive)
MCF7
  GI50: > 100 µM (inactive)
IGROV-1
  GI50: > 100 µM (inactive)
Hs-578T
  GI50: > 100 µM (inactive)
SK-OV-3
  GI50: > 100 µM (inactive)
SF-268
  GI50: > 100 µM (inactive)
PC-3
  GI50: > 100 µM (inactive)
SK-MEL-28
  GI50: > 100 µM (inactive)
MDA-MB-231
  GI50: > 100 µM (inactive)
MOLT-4
  GI50: > 100 µM (inactive)
SR
  GI50: > 100 µM (inactive)
HT-29
  GI50: > 100 µM (inactive)
SNB-75
  GI50: > 100 µM (inactive)
SNB-19
  GI50: > 100 µM (inactive)
OVCAR-5
  GI50: > 100 µM (inactive)
T47D
  GI50: > 100 µM (inactive)
KM12
  GI50: > 100 µM (inactive)
U-251
  GI50: > 100 µM (inactive)
ACHN
  GI50: > 100 µM (inactive)
EKVX
  GI50: > 100 µM (inactive)
RPMI-8226
  GI50: > 100 µM (inactive)
SF-295
  GI50: > 100 µM (inactive)
SF-539
  GI50: > 100 µM (inactive)
UO-31
  GI50: > 100 µM (inactive)
HCT-15
  GI50: > 100 µM
HL-60
  GI50: > 100 µM (inactive)
HCT-116
  GI50: > 100 µM (inactive)
COLO 205
  GI50: > 100 µM (inactive)
MDA-N
  GI50: > 100 µM (inactive)
HCC 2998
  GI50: > 100 µM (inactive)
OVCAR-8
  GI50: > 100 µM (inactive)

## O=C1NCN(c2ccccc2)C12CCN(CC1COc3ccccc3O1)CC2 (stereo not given) [SPIROXATRINE]
MDA-MB-435
  GI50: > 100 µM (inactive)
K562
  GI50: > 100 µM (inactive)
UACC-62
  GI50: > 100 µM (inactive)
NCI/ADR-RES
  GI50: 47.5 µM (inactive)
SK-MEL-5
  GI50: > 100 µM (inactive)
RXF 393
  GI50: 29.9 µM (inactive)
NCI-H460
  GI50: > 100 µM (inactive)
HOP-62
  GI50: 22.5 µM (inactive)
M14
  GI50: > 100 µM (inactive)
SW-620
  GI50: > 100 µM (inactive)
SN12C
  GI50: > 100 µM (inactive)
CCRF-CEM
  GI50: > 100 µM (inactive)
786-0
  GI50: 31.6 µM (inactive)
TK-10
  GI50: 46.9 µM (inactive)
OVCAR-3
  GI50: 28.6 µM (inactive)
OVCAR-4
  GI50: 33.4 µM (inactive)
UACC-257
  GI50: 36.6 µM (inactive)
Malme-3M
  GI50: 40.6 µM (inactive)
NCI-H522
  GI50: 91.8 µM (inactive)
A549
  GI50: > 100 µM (inactive)
MCF7
  GI50: > 100 µM (inactive)
IGROV-1
  GI50: 27.5 µM (inactive)
CAKI-1
  GI50: 39.8 µM (inactive)
Hs-578T
  GI50: 23.5 µM (inactive)
SK-OV-3
  GI50: 51.3 µM (inactive)
SF-268
  GI50: 65.2 µM (inactive)
PC-3
  GI50: 51.9 µM (inactive)
DU-145
  GI50: 77.4 µM (inactive)
NCI-H23
  GI50: 44.3 µM (inactive)
SK-MEL-28
  GI50: > 100 µM (inactive)
SK-MEL-2
  GI50: 38.4 µM (inactive)
MDA-MB-231
  GI50: 59.7 µM (inactive)
MOLT-4
  GI50: > 100 µM (inactive)
SR
  GI50: > 100 µM (inactive)
HT-29
  GI50: > 100 µM (inactive)
SNB-75
  GI50: 36.4 µM (inactive)
SNB-19
  GI50: 30.3 µM (inactive)
OVCAR-5
  GI50: > 100 µM (inactive)
T47D
  GI50: 54 µM (inactive)
A498
  GI50: 71.6 µM (inactive)
NCI-H226
  GI50: 49.9 µM (inactive)
U-251
  GI50: 31.3 µM (inactive)
ACHN
  GI50: 84.1 µM (inactive)
EKVX
  GI50: 43.5 µM (inactive)
RPMI-8226
  GI50: > 100 µM (inactive)
SF-295
  GI50: 33.8 µM (inactive)
SF-539
  GI50: 62.5 µM (inactive)
UO-31
  GI50: 50.7 µM (inactive)
HCT-15
  GI50: > 100 µM
HL-60
  GI50: > 100 µM (inactive)
LOX IMVI
  GI50: > 100 µM (inactive)
HCT-116
  GI50: > 100 µM (inactive)
COLO 205
  GI50: > 100 µM (inactive)
MDA-N
  GI50: > 100 µM (inactive)
HCC 2998
  GI50: > 100 µM (inactive)
OVCAR-8
  GI50: 69.3 µM (inactive)

## Nc1ccc(S(=O)(=O)Nc2ncccn2)cc1 [SULFADIAZINE, SILVER]
K562
  GI50: 2.12 µM (inactive)
CCRF-CEM
  GI50: 1.82 µM (inactive)
NCI-H522
  GI50: 1.77 µM (inactive)
